Reference: ChEMBL document CHEMBL2390902, “Discovery of 1-(1,3,5-triazin-2-yl)piperidine-4-carboxamides as inhibitors of soluble epoxide hydrolase” (Bioorg Med Chem Lett, 2013)

Columns and labels:
[1] = molecular target: Voltage-dependent L-type calcium channel subunit alpha-1C (Homo sapiens, UniProt Q13936); assay: Inhibition of CaV1.2 (unknown origin)
[2] = molecular target: Melatonin receptor type 1A (Homo sapiens) (UniProt P48039); assay: Inhibition of human MT1 receptor at 1 uM relative to control
[3] = molecular target: Beta-2 adrenergic receptor (Homo sapiens) (UniProt P07550); assay: Inhibition of human beta2 receptor at 1 uM relative to control
[4] = molecular target: Adenosine receptor A1 (Homo sapiens) (UniProt P30542); assay: Inhibition of human adenosine A1 receptor at 1 uM relative to control
[5] = molecular target: 5-hydroxytryptamine receptor 7 (Homo sapiens) (UniProt P34969); assay: Inhibition of human 5-HT7 receptor at 1 uM relative to control
[6] = Half life in rat at 2 mg/kg, iv; assay type: ADME, organism-based; set-up: dose 2 mg/kg, route intravenous; conditions: in vivo
Homo sapiens = organism: Homo sapiens; assay: Inhibition of human SKCa channel at 1 uM relative to control
Rattus norvegicus [7] = assay: Free maximum concentration of drug in rat at 2 mg/kg, po; assay type: ADME, organism-based; set-up: dose 2 mg/kg, route oral; conditions: in vivo
[8] = molecular target: Muscarinic acetylcholine receptor M4 (Homo sapiens) (UniProt P08173); assay: Inhibition of human M4 receptor at 1 uM relative to control
[9] = molecular target: Bifunctional epoxide hydrolase 2 (Rattus norvegicus, UniProt P80299)
Epoxide hydrolase 1 = Epoxide hydrolase 1 (Homo sapiens, UniProt P07099)
[10] = molecular target: Vasopressin V1a receptor (Homo sapiens) (UniProt P37288); assay: Inhibition of human vasopressin V1a receptor at 1 uM relative to control
[11] = molecular target: Galanin receptor type 2 (Homo sapiens) (UniProt O43603); assay: Inhibition of human GAL2 receptor at 1 uM relative to control
[12] = molecular target: Beta-1 adrenergic receptor (Homo sapiens) (UniProt P08588); assay: Inhibition of human beta1 receptor at 1 uM relative to control
[13] = molecular target: Melanocortin receptor 4 (Homo sapiens) (UniProt P32245); assay: Inhibition of human MC4 receptor at 1 uM relative to control
[14] = molecular target: Cholecystokinin receptor type A (Homo sapiens) (UniProt P32238); assay: Inhibition of human CCK1 receptor at 1 uM relative to control
[15] = Cmax in rat at 2 mg/kg, po; assay type: ADME, organism-based; set-up: dose 2 mg/kg, route oral; conditions: in vivo
[16] = Cmax in rat at 20 mg/kg, po; assay type: ADME, organism-based; set-up: dose 20 mg/kg, route oral; conditions: in vivo
Rattus norvegicus [17] = assay: Free maximum concentration of drug in rat at 20 mg/kg, po; assay type: ADME, organism-based; set-up: dose 20 mg/kg, route oral; conditions: in vivo
[18] = molecular target: 5-hydroxytryptamine receptor 1A (Homo sapiens) (UniProt P08908); assay: Inhibition of human 5-HT1A receptor at 1 uM relative to control
[19] = molecular target: Adenosine receptor A2a (Homo sapiens) (UniProt P29274); assay: Inhibition of human adenosine A2A receptor at 1 uM relative to control
[20] = Cmax in rat at 0.2 mg/kg, po; assay type: ADME, organism-based; set-up: dose 0.2 mg/kg, route oral; conditions: in vivo
[21] = molecular target: Vasoactive intestinal polypeptide receptor 1 (Homo sapiens) (UniProt P32241); assay: Inhibition of human VPAC1 receptor at 1 uM relative to control
[22] = Plasma clearance in rat at 1 mg/kg, iv; assay type: ADME, organism-based; set-up: dose 1 mg/kg, route intravenous
[23] = molecular target: Muscarinic acetylcholine receptor M3 (Homo sapiens) (UniProt P20309); assay: Inhibition of human M3 receptor at 1 uM relative to control
[24] = molecular target: Neuropeptide Y receptor type 1 (Homo sapiens) (UniProt P25929); assay: Inhibition of human Y1 receptor at 1 uM relative to control
[25] = molecular target: Muscarinic acetylcholine receptor M1 (Homo sapiens) (UniProt P11229); assay: Inhibition of human M1 receptor at 1 uM relative to control
Chain of Muscarinic acetylcholine receptor M1 (Homo sapiens) (P11229 whole entry): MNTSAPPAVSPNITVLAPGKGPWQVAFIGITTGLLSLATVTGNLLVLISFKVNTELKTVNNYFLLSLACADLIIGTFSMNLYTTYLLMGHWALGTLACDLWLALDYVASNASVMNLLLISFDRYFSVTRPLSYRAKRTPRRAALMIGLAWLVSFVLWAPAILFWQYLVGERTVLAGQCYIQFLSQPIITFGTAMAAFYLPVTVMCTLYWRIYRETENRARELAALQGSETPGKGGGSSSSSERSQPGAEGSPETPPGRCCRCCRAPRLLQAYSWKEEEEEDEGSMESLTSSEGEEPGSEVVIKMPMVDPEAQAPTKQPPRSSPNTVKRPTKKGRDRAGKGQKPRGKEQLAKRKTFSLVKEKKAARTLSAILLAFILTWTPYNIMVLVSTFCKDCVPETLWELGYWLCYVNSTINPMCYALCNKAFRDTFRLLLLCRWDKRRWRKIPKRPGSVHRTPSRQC

Chain of Neuropeptide Y receptor type 1 (Homo sapiens) (P25929 whole entry): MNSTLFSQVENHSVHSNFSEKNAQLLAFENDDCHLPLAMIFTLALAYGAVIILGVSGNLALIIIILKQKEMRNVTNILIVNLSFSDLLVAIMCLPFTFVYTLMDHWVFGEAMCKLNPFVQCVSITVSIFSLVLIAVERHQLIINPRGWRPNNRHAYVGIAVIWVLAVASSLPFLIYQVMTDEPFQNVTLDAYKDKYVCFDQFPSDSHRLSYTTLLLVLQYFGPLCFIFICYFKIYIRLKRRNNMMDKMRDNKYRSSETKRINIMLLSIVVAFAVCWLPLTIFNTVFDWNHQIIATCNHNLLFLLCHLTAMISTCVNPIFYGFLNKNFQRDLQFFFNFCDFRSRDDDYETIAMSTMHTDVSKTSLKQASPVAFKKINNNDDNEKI
Chain of Bifunctional epoxide hydrolase 2 (P80299 whole entry): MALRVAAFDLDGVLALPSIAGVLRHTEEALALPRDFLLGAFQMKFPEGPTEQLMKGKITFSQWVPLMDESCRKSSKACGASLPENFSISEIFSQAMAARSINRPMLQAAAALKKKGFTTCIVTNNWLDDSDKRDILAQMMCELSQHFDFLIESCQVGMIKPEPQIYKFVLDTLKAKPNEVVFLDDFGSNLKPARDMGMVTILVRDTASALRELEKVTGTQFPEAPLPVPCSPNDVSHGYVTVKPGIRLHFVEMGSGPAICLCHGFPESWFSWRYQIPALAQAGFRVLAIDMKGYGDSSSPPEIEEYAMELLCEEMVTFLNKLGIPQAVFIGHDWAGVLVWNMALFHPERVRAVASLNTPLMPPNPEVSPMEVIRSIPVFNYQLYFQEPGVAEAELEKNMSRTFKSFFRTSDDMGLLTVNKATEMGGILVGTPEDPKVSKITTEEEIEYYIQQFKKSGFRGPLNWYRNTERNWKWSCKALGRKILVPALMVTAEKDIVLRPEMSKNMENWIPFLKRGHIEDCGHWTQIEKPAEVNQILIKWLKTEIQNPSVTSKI
Chain of Cholecystokinin receptor type A (Homo sapiens) (P32238 whole entry): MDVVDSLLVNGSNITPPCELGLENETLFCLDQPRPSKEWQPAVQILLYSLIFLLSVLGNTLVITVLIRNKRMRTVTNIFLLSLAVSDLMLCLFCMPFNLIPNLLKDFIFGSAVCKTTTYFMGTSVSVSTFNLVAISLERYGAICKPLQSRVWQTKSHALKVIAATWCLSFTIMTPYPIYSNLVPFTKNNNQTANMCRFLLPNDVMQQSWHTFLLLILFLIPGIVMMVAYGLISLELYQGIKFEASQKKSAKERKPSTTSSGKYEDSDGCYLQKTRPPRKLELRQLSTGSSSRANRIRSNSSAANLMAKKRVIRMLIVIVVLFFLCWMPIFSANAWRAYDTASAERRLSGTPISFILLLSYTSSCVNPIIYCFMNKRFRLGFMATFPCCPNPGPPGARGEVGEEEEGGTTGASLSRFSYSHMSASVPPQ
Chain of Vasopressin V1a receptor (Homo sapiens) (P37288 whole entry, looked up): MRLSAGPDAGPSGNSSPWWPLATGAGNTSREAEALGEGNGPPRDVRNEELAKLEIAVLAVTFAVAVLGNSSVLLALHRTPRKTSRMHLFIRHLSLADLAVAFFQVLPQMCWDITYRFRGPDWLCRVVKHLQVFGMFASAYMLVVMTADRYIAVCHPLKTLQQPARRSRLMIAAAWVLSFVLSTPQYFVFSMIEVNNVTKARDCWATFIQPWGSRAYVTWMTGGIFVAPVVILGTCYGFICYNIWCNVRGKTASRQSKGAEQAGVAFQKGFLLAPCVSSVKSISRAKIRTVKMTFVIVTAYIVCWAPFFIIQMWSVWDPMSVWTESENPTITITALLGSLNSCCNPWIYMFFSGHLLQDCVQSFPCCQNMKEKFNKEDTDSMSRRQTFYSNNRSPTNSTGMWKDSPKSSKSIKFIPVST
Chain of Adenosine receptor A2a (Homo sapiens) (P29274 whole entry): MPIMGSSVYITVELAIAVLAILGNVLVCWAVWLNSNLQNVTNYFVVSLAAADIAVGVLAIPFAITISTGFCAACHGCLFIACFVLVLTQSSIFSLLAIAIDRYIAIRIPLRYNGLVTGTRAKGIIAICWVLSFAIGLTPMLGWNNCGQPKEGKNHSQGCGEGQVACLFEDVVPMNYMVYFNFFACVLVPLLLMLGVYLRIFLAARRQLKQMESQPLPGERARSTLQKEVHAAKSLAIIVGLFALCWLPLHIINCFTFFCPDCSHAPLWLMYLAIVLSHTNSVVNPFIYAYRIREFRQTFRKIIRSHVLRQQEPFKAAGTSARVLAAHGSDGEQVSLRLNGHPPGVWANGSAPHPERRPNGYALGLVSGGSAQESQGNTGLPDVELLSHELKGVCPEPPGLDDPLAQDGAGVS
Chain of Muscarinic acetylcholine receptor M4 (Homo sapiens) (P08173 whole entry): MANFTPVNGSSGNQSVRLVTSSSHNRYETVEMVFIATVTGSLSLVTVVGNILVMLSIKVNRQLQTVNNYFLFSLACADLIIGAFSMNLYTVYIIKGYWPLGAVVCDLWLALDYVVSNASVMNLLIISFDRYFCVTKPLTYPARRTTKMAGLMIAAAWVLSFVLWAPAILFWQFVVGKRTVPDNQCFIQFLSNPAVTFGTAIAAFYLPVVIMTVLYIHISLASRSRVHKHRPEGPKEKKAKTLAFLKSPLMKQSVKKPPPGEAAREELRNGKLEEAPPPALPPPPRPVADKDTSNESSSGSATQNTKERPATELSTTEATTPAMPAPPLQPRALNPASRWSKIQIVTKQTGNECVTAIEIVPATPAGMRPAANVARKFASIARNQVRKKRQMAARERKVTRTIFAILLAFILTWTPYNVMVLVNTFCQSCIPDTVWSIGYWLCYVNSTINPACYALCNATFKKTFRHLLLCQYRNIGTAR
Chain of Melanocortin receptor 4 (Homo sapiens) (P32245 whole entry): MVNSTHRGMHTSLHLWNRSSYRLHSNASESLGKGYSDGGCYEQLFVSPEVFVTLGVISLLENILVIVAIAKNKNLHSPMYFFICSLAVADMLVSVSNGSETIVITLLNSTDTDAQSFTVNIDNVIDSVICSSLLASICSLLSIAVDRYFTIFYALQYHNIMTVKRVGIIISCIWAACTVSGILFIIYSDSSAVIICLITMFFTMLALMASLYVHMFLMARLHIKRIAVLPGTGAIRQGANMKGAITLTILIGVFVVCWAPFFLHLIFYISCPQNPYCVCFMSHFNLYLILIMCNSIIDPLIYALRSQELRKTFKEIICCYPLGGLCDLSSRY
Chain of Galanin receptor type 2 (Homo sapiens) (O43603 whole entry): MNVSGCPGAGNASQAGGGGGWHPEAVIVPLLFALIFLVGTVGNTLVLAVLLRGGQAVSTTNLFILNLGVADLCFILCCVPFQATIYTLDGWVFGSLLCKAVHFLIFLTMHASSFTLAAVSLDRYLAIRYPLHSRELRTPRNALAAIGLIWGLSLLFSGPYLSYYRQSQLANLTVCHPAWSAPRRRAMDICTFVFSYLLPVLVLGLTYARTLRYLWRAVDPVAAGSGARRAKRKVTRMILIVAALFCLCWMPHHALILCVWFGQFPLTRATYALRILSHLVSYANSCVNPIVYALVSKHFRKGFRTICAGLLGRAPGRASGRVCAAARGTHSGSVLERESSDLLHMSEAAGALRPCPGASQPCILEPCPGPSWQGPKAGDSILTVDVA
Chain of Beta-2 adrenergic receptor (Homo sapiens) (P07550 whole entry, looked up): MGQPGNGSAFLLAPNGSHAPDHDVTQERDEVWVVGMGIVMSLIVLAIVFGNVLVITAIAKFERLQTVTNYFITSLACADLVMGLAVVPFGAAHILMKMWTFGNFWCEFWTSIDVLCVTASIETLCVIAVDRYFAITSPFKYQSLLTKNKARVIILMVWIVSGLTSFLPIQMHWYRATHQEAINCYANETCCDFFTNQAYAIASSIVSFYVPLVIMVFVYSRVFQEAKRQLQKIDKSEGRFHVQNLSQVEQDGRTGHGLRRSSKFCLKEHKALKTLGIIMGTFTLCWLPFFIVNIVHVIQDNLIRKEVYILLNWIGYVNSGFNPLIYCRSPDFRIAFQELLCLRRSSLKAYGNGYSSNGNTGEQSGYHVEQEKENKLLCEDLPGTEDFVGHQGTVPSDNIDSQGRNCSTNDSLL
Chain of Beta-1 adrenergic receptor (Homo sapiens) (P08588 whole entry, looked up): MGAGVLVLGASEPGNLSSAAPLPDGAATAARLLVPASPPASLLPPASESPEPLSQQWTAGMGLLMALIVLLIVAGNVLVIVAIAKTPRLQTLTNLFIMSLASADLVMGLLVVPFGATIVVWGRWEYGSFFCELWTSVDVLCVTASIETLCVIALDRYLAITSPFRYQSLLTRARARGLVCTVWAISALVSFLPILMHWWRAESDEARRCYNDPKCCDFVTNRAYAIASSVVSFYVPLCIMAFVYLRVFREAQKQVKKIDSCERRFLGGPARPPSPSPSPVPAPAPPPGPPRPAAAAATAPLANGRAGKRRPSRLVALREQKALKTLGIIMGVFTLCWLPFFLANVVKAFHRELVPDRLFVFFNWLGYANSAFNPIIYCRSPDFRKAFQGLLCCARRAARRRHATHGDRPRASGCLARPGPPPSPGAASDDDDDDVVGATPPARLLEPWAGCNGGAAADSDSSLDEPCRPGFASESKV

CNc1nc(C)nc(N2CCC(C(=O)NCc3ccc(Br)cc3OC(F)(F)F)CC2)n1
IC50 [1]: > 10 µM | inhibition [2]: < 50% | inhibition [3]: < 50% | inhibition [4]: < 50% | inhibition [5]: < 50% | half-life [6]: 4.6 h | inhibition (Homo sapiens): < 50% | fCmax (Rattus norvegicus [7]): 3 nM | inhibition [8]: < 50% | IC50 [9]: 0.002 µM | IC50 (Epoxide hydrolase 1): > 50 µM | inhibition [10]: < 50% | inhibition [11]: < 50% | inhibition [12]: < 50% | inhibition [13]: < 50% | inhibition [14]: < 50% | Cmax [15]: 223 nM | Cmax [16]: 1490 nM | fCmax (Rattus norvegicus [17]): 24 nM | inhibition [18]: < 50% | inhibition [19]: < 50% | Cmax [20]: 16 nM | inhibition [21]: < 50% | clearance [22]: 12 mL/min/kg | inhibition [23]: < 50% | inhibition [24]: < 50% | inhibition [25]: < 50%
